The record followed here is patent publication US20260297042A1, “BIARYLAMIDE DERIVATIVES AND THEIR USE AS PKMYT1 INHIBITORS” (CANCER RESEARCH TECHNOLOGY LIMITED, priority 2023, published 2026).

Broadly, the IC50 is the midpoint of a concentration-inhibition curve. Read a low IC50 as greater potency in that assay.

The target of one experiment is T1, Human PKMYT1 (Homo sapiens, UniProt Q99640).
T1 construct: Human PKMYT1 75-362 was cloned as a TEV cleavable 6xHis fusion; 6xHis (TEV cleavable) (cleaved yes); made in house; host or cells: bacterial cells
T1 sequence (Q99640 75-362): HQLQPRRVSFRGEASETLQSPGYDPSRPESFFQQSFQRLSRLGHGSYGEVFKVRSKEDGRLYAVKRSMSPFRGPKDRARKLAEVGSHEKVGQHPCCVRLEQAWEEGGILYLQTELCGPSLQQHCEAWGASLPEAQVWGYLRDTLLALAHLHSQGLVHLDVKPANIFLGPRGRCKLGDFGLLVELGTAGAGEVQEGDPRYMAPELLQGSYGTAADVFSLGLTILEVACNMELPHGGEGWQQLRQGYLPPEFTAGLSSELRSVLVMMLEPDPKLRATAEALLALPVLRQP
As to the kind of experiment: PKMYT1 biochemical ADP-Glo enzymatic assay. The settings on record: ADP-Glo. An outline of the steps:
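Luminescent ADP-Glo Max read-out of ADP produced by 15 nM PKMYT1 (residues 75-362, bacterial, His-tag removed) from 500 µM ATP without peptide substrate. Reaction: 50 mM HEPES pH 7.5, 10 mM MgCl2, 1 mM EGTA, 0.01% Brij-35, 60 min, 26 °C. IC50 values fitted from 10-point curves.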
In general terms: In ADP-Glo the light output rises with the ADP produced.

The next experiment deals with T2, WEE1 (Homo sapiens, UniProt P30291).
T2 construct: purchased Thermo Fisher PR7373A
As to the kind of experiment: Selectivity versus WEE1 assay (ADP-Glo enzymatic assay). The experiment is classed as biochemical. The settings on record: for IC50: ADP-Glo; for PKMYT1 vs. WEE1 selectivity: fold difference in selectivity for PKMYT1 over WEE1. An outline of the steps:
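ADP-Glo luminescence read-out after a 60 min reaction at 26° C, initiated by 30 µM ATP, with 15 nM enzyme in HEPES pH 7.5/MgCl2/EGTA/Brij-35 buffer containing 1% DMSO. Replicate IC50 values had to agree within 3-fold and fits needed r2 >0.9.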

For experiment [1], the target named is T3, Cellular PKMYT1 Biomarker CDK1 pT14 (Homo sapiens, UniProt Q99640).
T3 construct: read-out CDK1 phospho-T14 immunoblot
T3 sequence (Q99640 1-499): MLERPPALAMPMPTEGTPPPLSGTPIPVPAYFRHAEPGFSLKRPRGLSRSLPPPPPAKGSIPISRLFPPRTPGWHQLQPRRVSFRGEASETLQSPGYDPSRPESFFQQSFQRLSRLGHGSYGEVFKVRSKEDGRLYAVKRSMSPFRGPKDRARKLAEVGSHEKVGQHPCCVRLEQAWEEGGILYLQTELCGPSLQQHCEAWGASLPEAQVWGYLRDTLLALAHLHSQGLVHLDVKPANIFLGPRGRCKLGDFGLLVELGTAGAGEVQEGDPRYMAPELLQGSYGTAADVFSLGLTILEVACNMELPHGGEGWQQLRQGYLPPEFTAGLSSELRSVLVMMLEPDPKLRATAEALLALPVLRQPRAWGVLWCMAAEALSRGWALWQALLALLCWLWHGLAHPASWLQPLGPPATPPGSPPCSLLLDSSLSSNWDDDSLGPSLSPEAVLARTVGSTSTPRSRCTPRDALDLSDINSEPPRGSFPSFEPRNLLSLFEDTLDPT
In words: Inhibition of cellular PKMYT1 biomarker CDK1 pT14 in OVCAR 3 cells (immunoblot). Format: cell-based. The settings on record: 20 hours incubation. The method, then: To determine compound PKMYT1 IC50 in a cellular assay, OVCAR 3 cells were incubated at 37° C. in 5% CO2 atmosphere. The cells were maintained in RPMI medium supplemented with 20% foetal bovine serum, 1X non essential amino acids, 1 mM sodium pyruvate, Glutamax and insulin. Cells were seeded into 12-well plates at low density (50,000-200,000 cells per well), grown to confluence (~350-400,000 cells per well) and then treated with a range of concentrations of PKMYT1 inhibitors. The cells were incubated 20 hours and then harvested into 1X Laemmli Sample Buffer (BIORAD) without 2-mercaptoethanol, heated to 95° C. for 5 min, centrifuged and sonicated using a microprobe for 15 sec, 21W to shear the DNA.
The samples were analysed by immunoblot on a Jess Automated Western Blot System (BioTechne). The samples were separated using the 12-230 kDa Separation Module (BioTechne,) and blotted using an anti-CDK1 phospho T14 antibody (Abcam, #ab58509) and an anti-vinculin antibody (Abcam, #126002). Specific binding was detected by fluorescence using the Anti-Rabbit Detection Module (BioTechne, #DM-001), quantified using Compass for Simple Western software, and IC50 values were calculated by regression analysis in GraphPad Prism.
(Immunoblotting shows a protein as a band on a membrane.)

The test system of the next experiment is OVCAR 3 cells. As to the kind of experiment: Cancer cell line proliferation assay, ATP-based cell viability (Cell Titre Glow), OVCAR 3 (CCNE1-amplified). Particulars: KYSE30 (normal CCNE1) GI50 vs. OVCAR 3 (CCNE1-amplified) GI50. The procedure, abridged: (§1)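 Cells were treated with PKMYT1 inhibitors, then proliferation was assessed with CellTiter-Glo and luminescence read. GI50 values were fitted from the resulting data.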

For another experiment, the system named is KYSE-30 cells. As to the kind of experiment: Cancer cell line proliferation assay, ATP-based cell viability (Cell Titre Glow), KYSE-30 (normal CCNE1). The settings on record: Homo sapiens, KYSE-30 cells (normal CCNE1), concentration that achieves 50% cell growth proliferation inhibition, read-out: KYSE30 Gl50. The procedure, abridged: as §1
Where [2] appears, read: PKMYT1 kinase domain 15 nM, banded values.
[3] abbreviates: 15 nM PKMYT1 kinase domain, 500 µM ATP, 60 minutes at 26° C., banded.
[4] abbreviates: 15 nM WEE1, 60 minutes at 26° C., banded.
The mark [5] stands for this setting: banded, ">N" = at least in this band but could be higher.

T2 sequence (P30291 whole entry): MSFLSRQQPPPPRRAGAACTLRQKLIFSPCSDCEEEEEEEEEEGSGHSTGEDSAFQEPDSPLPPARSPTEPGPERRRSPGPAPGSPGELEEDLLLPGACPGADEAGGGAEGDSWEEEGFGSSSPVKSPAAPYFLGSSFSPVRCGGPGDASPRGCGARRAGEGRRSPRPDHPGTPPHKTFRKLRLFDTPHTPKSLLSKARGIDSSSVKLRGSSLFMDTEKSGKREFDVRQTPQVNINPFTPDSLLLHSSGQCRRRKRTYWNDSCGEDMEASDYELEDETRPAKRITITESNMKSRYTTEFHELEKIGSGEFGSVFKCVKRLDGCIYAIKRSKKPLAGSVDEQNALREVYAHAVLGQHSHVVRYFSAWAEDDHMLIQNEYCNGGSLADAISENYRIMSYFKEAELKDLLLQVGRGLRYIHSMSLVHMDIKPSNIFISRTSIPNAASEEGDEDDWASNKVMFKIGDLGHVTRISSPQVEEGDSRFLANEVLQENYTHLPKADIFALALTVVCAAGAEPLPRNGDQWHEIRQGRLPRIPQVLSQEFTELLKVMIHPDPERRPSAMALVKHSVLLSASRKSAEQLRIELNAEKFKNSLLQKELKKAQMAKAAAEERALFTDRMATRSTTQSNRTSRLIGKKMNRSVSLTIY

With `Cc1ccc(O)c(C)c1NC(=O)c1cnc(Nc2ncccc2C2CC2)s1` [BAA-412, 2-((3-cyclopropylpyridin-2-yl)amino)-N-(3-hydroxy-2,6-dimethylphenyl)thiazole-5-carboxamide], the IC50 was less than 0.05 µM against Human PKMYT1 (setting [2]); more than 11 µM against WEE1 (WEE1 15 nM, banded values); 0.1 to 1 µM in experiment [1]. Besides, the “PKMYT1 vs. WEE1 selectivity” value on WEE1 (banded) was “Z (>5000 fold)”.
Turning to `COCCN(C)C(=O)Cn1cc(C)c(Nc2ncc(C(=O)Nc3c(C)ccc(O)c3C)s2)n1` [BAA-549, N-(3-Hydroxy-2,6-dimethylphenyl)-2-((1-(2-((2-methoxyethyl)(methyl)amino)-2-oxoethyl)-4-methyl-1H-pyrazol-3-yl)amino)thiazole-5-carboxamide], the IC50 is less than 0.05 µM against Human PKMYT1 (setting [2]); more than 11 µM at WEE1 (WEE1 15 nM, banded values); less than 0.1 µM in experiment [1]. Further, at WEE1 (banded), the “PKMYT1 vs. WEE1 selectivity” value was “X (100-<1000 fold)”.
As for `Cc1cn(CC#N)nc1Nc1ncc(C(=O)Nc2c(C)ccc(O)c2C)s1` [BAA-467, 2-((1-(cyanomethyl)-4-methyl-1H-pyrazol-3-yl)amino)-N-(3-hydroxy-2,6-dimethylphenyl)thiazole-5-carboxamide], the IC50 was less than 0.05 µM against Human PKMYT1 (setting [2]); 0.05 to 1 µM against WEE1 (WEE1 15 nM, banded values); less than 0.1 µM in experiment [1]. The “PKMYT1 vs. WEE1 selectivity” value on WEE1 (banded) is on record as “W (10-<100 fold)”.
Regarding `Cn1cc(Br)c(Nc2ncc(C(=O)Nc3c(Cl)ccc(O)c3F)s2)n1` [BAA-471, 2-((4-Bromo-1-methyl-1H-pyrazol-3-yl)amino)-N-(6-chloro-2-fluoro-3-hydroxyphenyl)thiazole-5-carboxamide], the IC50 is 0.05 to 1 µM on Human PKMYT1 (setting [2]); more than 11 µM against WEE1 (WEE1 15 nM, banded values); 0.1 to 1 µM in experiment [1]. The “PKMYT1 vs. WEE1 selectivity” value at WEE1 (banded) is on record as “X (100-<1000 fold)”.
Turning to `Cc1ccc(O)c(C)c1NC(=O)c1cnc(Nc2nn(C)cc2Br)s1` [BAA-473, 2-((4-bromo-1-methyl-1H-pyrazol-3-yl)amino)-N-(3-hydroxy-2,6-dimethylphenyl)thiazole-5-carboxamide], the IC50 is less than 0.05 µM at Human PKMYT1 (setting [2]); 1 to 11 µM against WEE1 (WEE1 15 nM, banded values); 0.1 to 1 µM in experiment [1]. The “PKMYT1 vs. WEE1 selectivity” value at WEE1 (banded) was “X (100-<1000 fold)”.
Regarding `Cc1cc(Nc2ncc(C(=O)Nc3c(C)ccc(O)c3C)s2)ncn1` [BAA-580, N-(3-hydroxy-2,6-dimethylphenyl)-2-((6-methylpyrimidin-4-yl)amino)thiazole-5-carboxamide], the 50% inhibitory concentration (IC50) was less than 0.05 µM against Human PKMYT1 (setting [2]); 1 to 11 µM against WEE1 (WEE1 15 nM, banded values); 0.1 to 1 µM in experiment [1]. For the same molecule, the “PKMYT1 vs. WEE1 selectivity” value on WEE1 (banded) is “X (100-<1000 fold)”.
On to `Cc1cccnc1Nc1ncc(C(=O)Nc2c(C)ccc(O)c2C)s1` [BAA-415, N-(3-hydroxy-2,6-dimethylphenyl)-2-((3-methylpyridin-2-yl)amino)thiazole-5-carboxamide], for which the IC50 is less than 0.05 µM on Human PKMYT1 (setting [2]); more than 11 µM on WEE1 (WEE1 15 nM, banded values); less than 0.1 µM in experiment [1]. Besides, the “PKMYT1 vs. WEE1 selectivity” value on WEE1 (banded) is “X (100-<1000 fold)”.
Regarding `COCC(C(=O)N1CCCC1)n1cc(C)c(Nc2ncc(C(=O)Nc3c(C)ccc(O)c3C)s2)n1` (stereo not shown) [BAA-577, N-(3-Hydroxy-2.6-dimethylphenyl)-2-((1-(3-methoxy-1-oxo-1-(pyrrolidin-1-yl)propan-2-yl)-4-methyl-1H-pyrazol-3-yl)amino)thiazole-5-carboxamide], the IC50 at Human PKMYT1 (setting [2]) was less than 0.05 µM; at WEE1 (WEE1 15 nM, banded values) it was more than 11 µM; in experiment [1], less than 0.1 µM. For the same molecule, the “PKMYT1 vs. WEE1 selectivity” value at WEE1 (banded) is reported as “X (100-<1000 fold)”.
In the same order, the values of `Cc1ccc(O)c(C)c1NC(=O)c1cnc(Nc2nn(C)c3ccc(C(F)(F)F)cc23)s1` [BAA-454, N-(3-hydroxy-2,6-dimethylphenyl)-2-((1-methyl-5-(trifluoromethyl)-1H-indazol-3-yl)amino)thiazole-5-carboxamide] are 0.05 to 1 µM, more than 11 µM, less than 0.1 µM and “X (100-<1000 fold)”.
In the same order, the values of `Cc1cn(CC(F)F)nc1Nc1nnc(C(=O)Nc2c(C)ccc(O)c2C)s1` [BAA-464, 5-((1-(2,2-Difluoroethyl)-4-methyl-1H-pyrazol-3-yl)amino)-N-(3-hydroxy-2,6-dimethylphenyl)-1,3,4-thiadiazole-2-carboxamide] are less than 0.05 µM, more than 11 µM, 0.1 to 1 µM and “Y (1000-5000 fold)”.
In the same order, the values of `Cc1ccc(O)c(C)c1NC(=O)c1cnc(Nc2ncc(F)cc2F)s1` [BAA-413, 2-((3,5-difluoropyridin-2-yl)amino)-N-(3-hydroxy-2,6-dimethylphenyl)thiazole-5-carboxamide] are less than 0.05 µM, more than 11 µM, 0.1 to 1 µM and “Z (>5000 fold)”.
For `C=CC(=O)Nc1ccc(C)c(Nc2ncc(C(=O)Nc3c(C)ccc(O)c3C)s2)n1` [BAA-341, 2-((6-Acrylamido-3-methylpyridin-2-yl)amino)-N-(3-hydroxy-2,6-dimethylphenyl)thiazole-5-carboxamide], the IC50 is less than 0.05 µM against Human PKMYT1 (setting [3]) and 1 to 11 µM at WEE1 (setting [4]). In addition, on WEE1 (setting [5]), the “PKMYT1 vs. WEE1 selectivity” value is “X (100-<1000 fold)”. Further, in the experiment with OVCAR 3 cells, the “Selectivity ratio KYSE30 Gl50 vs. OVCAR3 Gl50” value was “X (3-20 fold)”. Further, the GI50 with KYSE-30 cells was in the range of 0.5 to 5 µM.
For the molecule `CCCN(C)C(=O)Cn1cc(C)c(Nc2ncc(C(=O)Nc3c(C)ccc(O)c3C)s2)n1` [BAA-491, N-(3-hydroxy-2,6-dimethylphenyl)-2-((4-methyl-1-(2-(methyl(propyl)amino)-2-oxoethyl)-1H-pyrazol-3-yl)amino)thiazole-5-carboxamide], the IC50 at Human PKMYT1 (setting [2]) is less than 0.05 µM; at WEE1 (WEE1 15 nM, banded values), 1 to 11 µM. Further, on WEE1 (banded), the “PKMYT1 vs. WEE1 selectivity” value is “X (100-<1000 fold)”. For the same molecule, the “Selectivity ratio KYSE30 Gl50 vs. OVCAR3 Gl50” value with OVCAR 3 cells was “Y (>20 fold)”. For the same molecule, the GI50 in the experiment on KYSE-30 cells was more than 5 µM.
Regarding `CCn1nc(Nc2ncc(C(=O)Nc3c(C)ccc(O)c3C)s2)cc1C` [BAA-495, 2-((1-ethyl-5-methyl-1H-pyrazol-3-yl)amino)-N-(3-hydroxy-2,6-dimethylphenyl)thiazole-5-carboxamide], the IC50 against Human PKMYT1 (setting [2]) fell in the range of 0.05 to 1 µM; on WEE1 (WEE1 15 nM, banded values), 1 to 11 µM. For the same molecule, the “PKMYT1 vs. WEE1 selectivity” value on WEE1 (banded) was “W (10-<100 fold)”. Moreover, the “Selectivity ratio KYSE30 Gl50 vs. OVCAR3 Gl50” value in the experiment with OVCAR 3 cells is “Y (>20 fold)”. Also, the GI50 with KYSE-30 cells is more than 5 µM.
For `Cc1ccc(O)c(C)c1NC(=O)c1cnc(Nc2ccn(CC(C)C)n2)s1` [BAA-016, N-(3-hydroxy-2,6-dimethyl-phenyl)-2-[(1-isobutylpyrazol-3-yl)amino]thiazole-5-carboxamide], the concentration for half-maximal inhibition (IC50) against Human PKMYT1 (setting [3]) is less than 0.05 µM; on WEE1 (setting [4]), 1 to 11 µM. Besides, the “PKMYT1 vs. WEE1 selectivity” value on WEE1 (setting [5]) was “W (10-<100 fold)”. Also, the “Selectivity ratio KYSE30 Gl50 vs. OVCAR3 Gl50” value in the experiment on OVCAR 3 cells was “X (3-20 fold)”. For the same molecule, the GI50 with KYSE-30 cells is 0.5 to 5 µM.
